Test results from paper PMC10620772, “Design, synthesis, and biological evaluation of new pyrimidine-5-carbonitrile derivatives as novel anti-cancer, dual EGFR^WT/COX-2 inhibitors with docking studies” (RSC Advances, 2023).
Where “and” joins values, the source holds several entries; their conditions need not be identical. Equal entries are not always repeated. Entries after “also recorded” stand apart in the source; their conditions may differ. Where two headings read alike, the source gives them in different places.

How the values were obtained:
Assay type in all cases: cell-based, human
NCI-H226 = assay: NCI60 antitumor screening
A498 = assay: NCI60 antitumor screening
HL-60(TB) = assay: NCI60 antitumor screening
NCI60 cell lines panel = assay: NCI60 antitumor screening, full panel
In short: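 Percent growth inhibition (GI%) was recorded for each of the NCI60 lines, spanning leukaemia, lung, colon, CNS, melanoma, ovarian, renal, prostate and breast cancers, after exposure to compounds at one concentration, 10 μM.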

SF-295 = assay: NCI60 antitumor screening
SW-620 = assay: NCI60 antitumor screening
U251 = assay: NCI60 antitumor screening
SR = assay: NCI60 antitumor screening
OVCAR-5 = assay: NCI60 antitumor screening
A549/ATCC = assay: NCI60 antitumor screening
OVCAR-3 = assay: NCI60 antitumor screening
CAKI-1 = assay: NCI60 antitumor screening
LOX IMVI = assay: NCI60 antitumor screening

`N#Cc1c(-c2ccc(F)cc2)nc(SCc2ccccc2)nc1N1CCNCC1` [4e, 2-(Benzylthio)-4-(4-fluorophenyl)-6-(piperazin-1-yl) pyrimidine-5-carbonitrile] was tested. Which inhibition at 10 µM (NCI-H226; Homo sapiens, 10 μM single dose, NCI-H226 (non-small cell lung cancer), read-out: growth inhibition percent (GI%)) did it give?
Its inhibition at 10 µM is over 100%.

What about the TGI (NCI-H226; five-dose) of the same compound?
The TGI was 33.40 µM.

And the GI50 (A498; Homo sapiens, A498, five-dose)?
The GI50 was 13.1 µM.

And the LC50 (A498; Homo sapiens, A498, five-dose)?
The LC50 was 56.9 µM.

What about the inhibition at 10 µM (A498; Homo sapiens, 10 μM single dose, A498 (renal cancer), read-out: growth inhibition percent (GI%)) of the same compound?
Its inhibition at 10 µM is over 100%.

And the TGI (A498; five-dose)?
Its TGI is 27.30 µM.

And the GI50 (HL-60(TB); Homo sapiens, HL-60, five-dose)?
Its GI50 is 4.5 µM.

And the CC50 (HL-60(TB); Homo sapiens, HL-60, five-dose, read-out: LC50 (the source's name))?
The CC50 was 46.5 µM.

What about the inhibition at 10 µM (HL-60(TB); Homo sapiens, 10 μM single dose, HL-60(TB) (leukaemia), read-out: growth inhibition percent (GI%)) of the same compound?
The inhibition at 10 µM was over 100%.

What about the TGI (HL-60(TB); five-dose) of the same compound?
Its TGI is 17.30 µM.

And the “One-dose activity over the NCI60 panel” value (NCI60 cell lines panel; 10 μM)?
The value was “lethal effect to all cancer subpanels; also recorded: Lethal to all NCI60 cell lines”.

What about the inhibition at 10 µM (NCI60 cell lines panel; Homo sapiens, 10 μM single dose, mean over NCI60 cell lines, read-out: Mean growth inhibition percent (GI%)) of the same compound?
Its inhibition at 10 µM is over 100%.

What about the GI50 (NCI60 cell lines panel; Homo sapiens, average of all cell lines, read-out: Full panel MG-MID (GI50)) of the same compound?
Its GI50 is 10.7 µM.

What about the GI50 (NCI60 cell lines panel; Homo sapiens, five-dose, read-out: GI50 range, leukemia and colon cancer cell lines) of the same compound?
Its GI50 is 1.77 to 17.1 µM.

And the CC50 (NCI60 cell lines panel; Homo sapiens, five-dose, read-out: LC50 range over examined cell lines)?
Its CC50 is 5 to 69 µM.

And the “Full panel MG-MID (TGI)” value (NCI60 cell lines panel; average of all cell lines)?
Its value is 23.60 μM and 23.60 ^e μM.

What about the GI50 (SF-295; Homo sapiens, SF-295, five-dose) of the same compound?
Its GI50 is 15.8 µM.

And the CC50 (SF-295; Homo sapiens, SF-295, five-dose, read-out: LC50 (the source's name))?
Its CC50 is 57.5 µM.

What about the inhibition at 10 µM (SF-295; Homo sapiens, 10 μM single dose, SF-295 (CNS cancer), read-out: growth inhibition percent (GI%)) of the same compound?
The inhibition at 10 µM was over 100%.

And the TGI (SF-295; five-dose)?
Its TGI is 30.10 µM.

What about the GI50 (SW-620; Homo sapiens, SW-620, five-dose) of the same compound?
The GI50 was 3.38 µM.

What about the CC50 (SW-620; Homo sapiens, SW-620, five-dose, read-out: LC50 (the source's name)) of the same compound?
The CC50 was 40.9 µM.

What about the inhibition at 10 µM (SW-620; Homo sapiens, 10 μM single dose, SW-620 (colon cancer), read-out: growth inhibition percent (GI%)) of the same compound?
The inhibition at 10 µM was over 100%.

What about the TGI (SW-620; five-dose) of the same compound?
Its TGI is 13.10 µM.

And the inhibition at 10 µM (U251; Homo sapiens, U-251, 10 μM single dose, U251 (CNS cancer), read-out: growth inhibition percent (GI%))?
The inhibition at 10 µM was over 100%.

And the GI50 (U251; Homo sapiens, U-251, five-dose)?
The GI50 was 4.36 µM.

And the CC50 (U251; Homo sapiens, U-251, five-dose, read-out: LC50 (the source's name))?
The CC50 was 44.6 µM.

What about the TGI (U251; five-dose) of the same compound?
Its TGI is 16.10 µM.

And the GI50 (SR; Homo sapiens, SR, five-dose)?
Its GI50 is 1.92 µM.

What about the CC50 (SR; Homo sapiens, SR, five-dose, read-out: LC50 (the source's name)) of the same compound?
The CC50 was 13.8 µM.

And the inhibition at 10 µM (SR; Homo sapiens, 10 μM single dose, SR (leukaemia), read-out: growth inhibition percent (GI%))?
The inhibition at 10 µM was over 100%.

What about the TGI (SR; five-dose) of the same compound?
The TGI was 4.61 µM.

What about the GI50 (OVCAR-5; Homo sapiens, OVCAR-5, five-dose) of the same compound?
The GI50 was 14.1 µM.

And the CC50 (OVCAR-5; Homo sapiens, OVCAR-5, five-dose, read-out: LC50 (the source's name))?
The CC50 was 54.2 µM.

What about the inhibition at 10 µM (OVCAR-5; Homo sapiens, 10 μM single dose, OVCAR-5 (ovarian cancer), read-out: growth inhibition percent (GI%)) of the same compound?
Its inhibition at 10 µM is over 100%.

And the TGI (OVCAR-5; five-dose)?
The TGI was 27.60 µM.

What about the GI50 (A549/ATCC; Homo sapiens, A549, five-dose) of the same compound?
Its GI50 is 8.1 µM.

What about the LC50 (concentration killing 50% of cells) (A549/ATCC; Homo sapiens, A549, five-dose) of the same compound?
The LC50 (concentration killing 50% of cells) was 50.2 µM.

And the inhibition at 10 µM (A549/ATCC; Homo sapiens, 10 μM single dose, A549/ATCC (non-small cell lung cancer), read-out: growth inhibition percent (GI%))?
Its inhibition at 10 µM is over 100%.

What about the TGI (A549/ATCC; five-dose) of the same compound?
The TGI was 21.50 µM.

And the GI50 (OVCAR-3; Homo sapiens, OVCAR-3, five-dose)?
The GI50 was 14.3 µM.

What about the CC50 (OVCAR-3; Homo sapiens, OVCAR-3, five-dose, read-out: LC50 (the source's name)) of the same compound?
Its CC50 is 59.1 µM.

What about the inhibition at 10 µM (OVCAR-3; Homo sapiens, 10 μM single dose, OVCAR-3 (ovarian cancer), read-out: growth inhibition percent (GI%)) of the same compound?
Its inhibition at 10 µM is over 100%.

What about the TGI (OVCAR-3; five-dose) of the same compound?
Its TGI is 29.10 µM.

What about the GI50 (CAKI-1; Homo sapiens, CAKI-1, five-dose) of the same compound?
The GI50 was 16 µM.

What about the CC50 (CAKI-1; Homo sapiens, CAKI-1, five-dose, read-out: LC50 (the source's name)) of the same compound?
Its CC50 is 55.1 µM.

And the inhibition at 10 µM (CAKI-1; Homo sapiens, 10 μM single dose, CAKI-1 (renal cancer), read-out: growth inhibition percent (GI%))?
The inhibition at 10 µM was over 100%.

And the TGI (CAKI-1; five-dose)?
Its TGI is 29.70 µM.

What about the GI50 (LOX IMVI; Homo sapiens, LOX IMVI, five-dose) of the same compound?
Its GI50 is 1.71 µM.

And the CC50 (LOX IMVI; Homo sapiens, LOX IMVI, five-dose, read-out: LC50 (the source's name))?
Its CC50 is 6.48 µM.

And the inhibition at 10 µM (LOX IMVI; Homo sapiens, 10 μM single dose, LOX IMVI (melanoma), read-out: growth inhibition percent (GI%))?
The inhibition at 10 µM was over 100%.

What about the TGI (LOX IMVI; five-dose) of the same compound?
The TGI was 3.33 µM.
